The NIST ThermoML archive (doi:10.1021/je200371n)

Conditions: Gas

S [hydrogen sulfide]
Mass density=0.74 kg/m3
Conditions	viscosity [mPa·s]
291.61 K	0.01186
292.3 K	0.01186
292.46 K	0.01187
292.77 K	0.01188
296.89 K	0.01207
297.01 K	0.01206
323.94 K	0.01319
323.96 K	0.01318
350.47 K	0.01429
350.59 K	0.0143
378.01 K	0.01543
378.19 K	0.01544
405.76 K	0.01656
405.86 K	0.01657
433.66 K	0.01769
433.81 K	0.0177
461.72 K	0.01881
461.92 K	0.01882
490.09 K	0.01993
490.2 K	0.01992
518.68 K	0.021
518.75 K	0.021
542.48 K	0.0219
542.61 K	0.0219
565.19 K	0.02274
565.29 K	0.02275
593.95 K	0.02379
594.02 K	0.02379
623.07 K	0.02482
623.19 K	0.02482
652.3 K	0.02584
652.32 K	0.02584
681.36 K	0.02682
682.03 K	0.02684

C [methane]
Conditions	viscosity [mPa·s]
289.05 K, Mass density=0.498 kg/m3	0.01081
290.41 K, Mass density=0.498 kg/m3	0.01083
291.93 K, Mass density=0.344 kg/m3	0.01089
292.96 K, Mass density=0.344 kg/m3	0.01092
296.43 K, Mass density=0.498 kg/m3	0.01103
296.57 K, Mass density=0.498 kg/m3	0.01105
297.08 K, Mass density=0.344 kg/m3	0.01106
323.43 K, Mass density=0.498 kg/m3	0.01189
323.86 K, Mass density=0.344 kg/m3	0.01191
350.55 K, Mass density=0.344 kg/m3	0.01273
350.64 K, Mass density=0.498 kg/m3	0.01272
378.15 K, Mass density=0.344 kg/m3	0.01356
378.25 K, Mass density=0.498 kg/m3	0.01355
405.88 K, Mass density=0.344 kg/m3	0.01436
406.03 K, Mass density=0.498 kg/m3	0.01436
433.83 K, Mass density=0.344 kg/m3	0.01514
434.02 K, Mass density=0.498 kg/m3	0.01514
461.75 K, Mass density=0.498 kg/m3	0.0159
461.85 K, Mass density=0.344 kg/m3	0.01591
490.13 K, Mass density=0.344 kg/m3	0.01666
490.15 K, Mass density=0.498 kg/m3	0.01665
518.8 K, Mass density=0.498 kg/m3	0.0174
518.83 K, Mass density=0.344 kg/m3	0.01739
542.36 K, Mass density=0.498 kg/m3	0.01798
542.6 K, Mass density=0.344 kg/m3	0.01799
565.1 K, Mass density=0.498 kg/m3	0.01854
565.38 K, Mass density=0.344 kg/m3	0.01856
593.84 K, Mass density=0.498 kg/m3	0.01924
594.08 K, Mass density=0.344 kg/m3	0.01925
623.05 K, Mass density=0.498 kg/m3	0.01993
623.33 K, Mass density=0.344 kg/m3	0.01995
652.07 K, Mass density=0.498 kg/m3	0.02061
652.41 K, Mass density=0.344 kg/m3	0.02062
681.93 K, Mass density=0.498 kg/m3	0.02127
682.14 K, Mass density=0.344 kg/m3	0.0213
